The numbers were not newly measured in patent publication EP3372227A1, “TABLET FORMULATION OF ADEFOVIR DIPIVOXIL” (MH10 Spolka z ograniczona odpowiedzialnoscia, priority 2017, dated 2018), which cites them from elsewhere.

The conditions of the data set: rat, in vivo.

On to `Nc1ncnc2c1ncn2CCOCP(=O)(O)O` [adefovir], for which the relative oral bioavailability is 7.8.
